For this assay, the system named is hair cells. The experiment in a line: Hair cell toxicity assay in zebrafish (neomycin-induced hair cell death, DASPEI staining of neuromasts). Conditions: Danio rerio; for Emax at 8.3 µM: maximum observed @ 8.3 μM test compound; for Emax at 8.3 µM / Emax at 25 µM / Emax at 2.8 µM: 200 micromolar neomycin, read-out: Max HC Protection (HCmax, % hair cell survival); for Emax at 25 µM: maximum observed @ 25 μM test compound; for EC50: zebrafish larvae 5-7 dpf, 1 h pre-treatment, then 200 micromolar neomycin + test compound 30 min, read-out: HC50 (concentration that would produce 50% hair cell survival); for Emax at 2.8 µM: maximum observed @ 2.8 μM test compound. Format: in vivo. An outline of the steps:
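Zebrafish larvae 5-7 dpf pre-treated 1 h with compound (0.010-25 μM), then 30 min with 200 μM neomycin plus compound. DASPEI stained 10 neuromasts per fish, scored 0-2 (total 0-20), normalised to vehicle controls as % hair cell survival. HC50 linearly interpolated if survival reached ≥50%; HCmax is maximum survival.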

In patent US9416141B2 (University of Washington through its Center for …, priority 2012, dated 2016) one finds Emax and EC50 data, which are given here for 28 compounds.

Counter-ions that a name gives are not always drawn. Some results are limits rather than exact numbers.

Turning to `CC(C)(C)CN1CCc2c(sc(NC(=O)Nc3ccc4ccccc4c3)c2C(N)=O)C1` [Example 36, 2-[3-(Naphthalen-2-yl)ureido]-6-neopentyl-4,5,6,7-tetrahydrothieno[2,3-c]pyridine-3-carboxamide hydrochloride], the Emax at 8.3 µM was 13%. With `NC(=O)c1c(NC(=O)Nc2ccc3ccccc3c2)sc2c1CCN(CCCCO)C2` [Example 37, 6-(4-Hydroxybutyl)-2-[3-(naphthalen-2-yl)ureido]-4,5,6,7-tetrahydrothieno[2,3-c]pyridine-3-carboxamide hydrochloride], the Emax at 25 µM stood at 105% and the EC50 was in the range of 1 to 10 µM.

For the compound `COC(=O)C(C)(C)CN1CCc2c(sc(NC(=O)Nc3ccc(Cl)cc3)c2C(N)=O)C1` [Example 38, Methyl 3-{3-carbamoyl-2-[3-(4-chlorophenyl)ureido]-4,5-dihydrothieno[2,3-c]pyridin-6(7H)-yl}-2,2-dimethylpropanoate hydrochloride], the Emax at 2.8 µM was determined as 14%. Turning to `CC(C)CN1CCc2c(sc(NC(=O)Nc3ccc(Cl)c4ccccc34)c2C(N)=O)C1` [Example 39, 2-[3-(4-Chloronaphthalen-1-yl)ureido]-6-isobutyl-4,5,6,7-tetrahydrothieno[2,3-c]pyridine-3-carboxamide hydrochloride], the Emax at 25 µM was 56% and the EC50 was above 10 µM. Consider `NC(=O)c1c(NC(=O)Nc2ccc(Cl)c3ccccc23)sc2c1CCN(CC1CCC1)C2` [Example 40, 2-[3-(4-Chloronaphthalen-1-yl)ureido]-6-(cyclobutylmethyl)-4,5,6,7-tetrahydrothieno[2,3-c]pyridine-3-carboxamide hydrochloride], for which the Emax at 8.3 µM turned out to be 62% and the EC50 was 1 to 10 µM.

`CC(C)(C)CN1CCc2c(sc(NC(=O)Nc3ccc(Cl)c4ccccc34)c2C(N)=O)C1` [Example 41, 2-[3-(4-Chloronaphthalen-1-yl)ureido]-6-neopentyl-4,5,6,7-tetrahydrothieno[2,3-c]pyridine-3-carboxamide hydrochloride]: the Emax at 8.3 µM stood at 39%. On to `CN(C)C1CCc2c(sc(NC(=O)Nc3ccc(Cl)cc3)c2C(N)=O)C1` (stereo not shown) [Example 42, 2-[3-(4-Chlorophenyl)ureido]-6-(dimethylamino)-4,5,6,7-tetrahydrobenzo[b]thiophene-3-carboxamide hydrochloride], for which the Emax at 25 µM was found to be 90% and the EC50 is 1 to 10 µM. With `NC(=O)c1c(NC(=O)Nc2ccc(Cl)cc2)sc2c1CCC(N1CCC1)C2` (stereo not shown) [Example 43, 6-(Azetidin-1-yl)-2-[3-(4-chlorophenyl)ureido]-4,5,6,7-tetrahydrobenzo[b]thiophene-3-carboxamide hydrochloride], the Emax at 25 µM is 93% and the EC50 lay in the range of 1 to 10 µM.

For the compound `NC(=O)c1c(NC(=O)Nc2ccc(Cl)cc2)sc2c1CCN(CCN1CCCCC1)C2` [Example 44, 2-[3-(4-chlorophenyl)ureido]-6-[2-(piperidin-1-yl)ethyl]-4,5,6,7-tetrahydrothieno[2,3-c]pyridine-3-carboxamide ditrifluoroacetate], the Emax at 25 µM amounted to 98% and the EC50 fell in the range of 1 to 10 µM. Take `CN1CCN(CCN2CCc3c(sc(NC(=O)Nc4ccc(Cl)cc4)c3C(N)=O)C2)CC1` [Example 45, 2-[3-(4-Chlorophenyl)ureido]-6-[2-(4-methylpiperazin-1-yl)ethyl]-4,5,6,7-tetrahydrothieno[2,3-c]pyridine-3-carboxamide hydrochloride]: the Emax at 25 µM amounted to 78% and the EC50 was 1 to 10 µM.

`NC(=O)c1c(NC(=O)Nc2ccc(Cl)cc2)sc2c1CCN(CCN1CCOCC1)C2` [Example 46, 2-[3-(4-Chlorophenyl)ureido]-6-(2-morpholinoethyl)-4,5,6,7-tetrahydrothieno[2,3-c]pyridine-3-carboxamide trifluoroacetate]: the Emax at 25 µM is 79% and the EC50 was above 10 µM. In the case of `NC(=O)c1c(NC(=O)Nc2ccc(Cl)cc2)sc2c1CCN(CC13CC4CC(CC(C4)C1)C3)C2` [Example 49, 6-[(3r,5r,7r)-Adamantan-1-ylmethyl]-2-[3-(4-chlorophenyl)ureido]-4,5,6,7-tetrahydrothieno[2,3-c]pyridine-3-carboxamide hydrochloride], the Emax at 2.8 µM worked out at 64% and the EC50 was 1 to 10 µM. Take `NC(=O)CCN1CCc2c(sc(NC(=O)Nc3ccc(Cl)cc3)c2C(N)=O)C1` [Example 50, 6-(3-amino-3-oxopropyl)-2-[3-(4-chlorophenyl)ureido]-4,5,6,7-tetrahydrothieno[2,3-c]pyridine-3-carboxamide hydrochloride]: the Emax at 25 µM stood at 82% and the EC50 is 1 to 10 µM. Turning to `CC(C)(C)OC(=O)CCN1CCc2c(sc(NC(=O)Nc3ccc(Cl)cc3)c2C(N)=O)C1` [Example 51, tert-Butyl 3-{3-Carbamoyl-2-[3-(4-chlorophenyl)ureido]-4,5-dihydrothieno[2,3-c]pyridin-6(7H)-yl}propanoate], the Emax at 8.3 µM is 55% and the EC50 is 1 to 10 µM. For `NC(=O)c1c(NC(=O)Nc2ccc(Cl)cc2)sc2c1CCN(CCC(=O)O)C2` [Example 52, 3-{3-Carbamoyl-2-[3-(4-chlorophenyl)ureido]-4,5-dihydrothieno[2,3-c]pyridin-6(7H)-yl}propanoic acid trifluoroacetate], the Emax at 25 µM turned out to be 33%.

As for `CN(C)C(=O)CCN1CCc2c(sc(NC(=O)Nc3ccc(Cl)cc3)c2C(N)=O)C1` [Example 53, 2-[3-(4-Chlorophenyl)ureido]-6-[3-(dimethylamino)-3-oxopropyl]-4,5,6,7-tetrahydrothieno[2,3-c]pyridine-3-carboxamide hydrochloride], the Emax at 25 µM was 103% and the EC50 was 1 to 10 µM. Consider `CC(C)OC(=O)CCN1CCc2c(sc(NC(=O)Nc3ccc(Cl)cc3)c2C(N)=O)C1` [Example 54, Isopropyl 3-{3-carbamoyl-2-[3-(4-chlorophenyl)ureido]-4,5-dihydrothieno[2,3-c]pyridin-6(7H)-yl}propanoate hydrochloride], for which the Emax at 25 µM was determined as 58% and the EC50 was 1 to 10 µM. Consider `COC(=O)CCN1CCc2c(sc(NC(=O)Nc3ccc(Cl)cc3)c2C(N)=O)C1` [Example 55, Methyl 3-{3-carbamoyl-2-[3-(4-chlorophenyl)ureido]-4,5-dihydrothieno[2,3-c]pyridin-6(7H)-yl}propanoate], for which the Emax at 2.8 µM was 17%. With `CCOC(=O)CCN1CCc2c(sc(NC(=O)Nc3ccc(Cl)cc3)c2C(N)=O)C1` [Example 56, Ethyl 3-{3-carbamoyl-2-[3-(4-chlorophenyl)ureido]-4,5-dihydrothieno[2,3-c]pyridin-6(7H)-yl}propanoate hydrochloride], the Emax at 2.8 µM was found to be 48%. Consider `CC(C)NC(=O)CCN1CCc2c(sc(NC(=O)Nc3ccc(Cl)cc3)c2C(N)=O)C1` [Example 57, 2-[3-(4-Chlorophenyl)ureido]-6-[3-(isopropylamino)-3-oxopropyl]-4,5,6,7-tetrahydrothieno[2,3-c]pyridine-3-carboxamide hydrochloride], for which the Emax at 2.8 µM came to 50% and the EC50 fell in the range of 1 to 10 µM. As to `CC(C)(C)OC(=O)CN1CCc2c(sc(NC(=O)Nc3ccc(Cl)cc3)c2C(N)=O)C1` [Example 58, tert-butyl 2-{3-carbamoyl-2-[3-(4-chlorophenyl)ureido]-4,5-dihydrothieno[2,3-c]pyridin-6(7H)-yl}acetate], the Emax at 2.8 µM is 7%. Consider `NC(=O)c1c(NC(=O)Nc2ccc(Cl)cc2)sc2c1CCN(CCO)C2` [Example 60, 2-[3-(4-Chlorophenyl)ureido]-6-(2-hydroxyethyl)-4,5,6,7-tetrahydrothieno[2,3-c]pyridine-3-carboxamide hydrochloride], for which the Emax at 25 µM stood at 71% and the EC50 was 1 to 10 µM. For the compound `NC(=O)c1c(NC(=O)Nc2ccc(Cl)cc2)sc2c1CCN(CC(=O)O)C2` [Example 61, 2-{3-Carbamoyl-2-[3-(4-chlorophenyl)ureido]-4,5-dihydrothieno[2,3-c]pyridin-6(7H)-yl}acetic acid hydrochloride], the Emax at 25 µM is 24%. On to `CC1(CN2CCc3c(sc(NC(=O)Nc4ccc(Cl)cc4)c3C(N)=O)C2)CC1` [Example 63, 2-[3-(4-Chlorophenyl)ureido]-6-[(1-methylcyclopropyl)methyl]-4,5,6,7-tetrahydrothieno[2,3-c]pyridine-3-carboxamide hydrochloride], for which the Emax at 2.8 µM was determined as 54% and the EC50 lay in the range of 1 to 10 µM. Consider `CCN1CCc2c(sc(NC(=O)Nc3ccc(Cl)c(C)c3)c2C(N)=O)C1` [Example 64, 2-[3-(4-chloro-3-methylphenyl)ureido]-6-ethyl-4,5,6,7-tetrahydrothieno[2,3-c]pyridine-3-carboxamide hydrochloride], for which the Emax at 25 µM is 77% and the EC50 lay in the range of 1 to 10 µM.

For the compound `CCN1CCc2c(sc(NC(=O)Nc3ccccc3Cl)c2C(N)=O)C1` [Example 65, 2-[3-(2-Chlorophenyl)ureido]-6-ethyl-4,5,6,7-tetrahydrothieno[2,3-c]pyridine-3-carboxamide hydrochloride], the Emax at 2.8 µM came to 17%. On to `CCN1CCc2c(sc(NC(=O)Nc3ccc(F)cc3)c2C(N)=O)C1` [Example 66, 6-Ethyl-2-[3-(4-fluorophenyl)ureido]-4,5,6,7-tetrahydrothieno[2,3-c]pyridine-3-carboxamide hydrochloride], for which the Emax at 25 µM came out at 57% and the EC50 was above 10 µM. With `CCN1CCc2c(sc(NC(=O)Nc3ccc(C#N)cc3)c2C(N)=O)C1` [Example 67, 2-[3-(4-Cyanophenyl)ureido]-6-ethyl-4,5,6,7-tetrahydrothieno[2,3-c]pyridine-3-carboxamide hydrochloride], the Emax at 8.3 µM is 20%.
